# Laboratory results reported in patent publication US20240034731A1, “AZA-QUINAZOLINE COMPOUNDS AND METHODS OF USE” (Iambic Therapeutics, Inc., priority 2022, published 2024).
# How the values were obtained:
# [1] = system: MCF-7 cells; experiment: Cell Growth Inhibition, MCF-7 (CellTiterGlo, 6 days); assay type: cell-based; conditions: Homo sapiens, MCF7, 144 h, MCF-7, 6-day treatment
# Summary of the method: (§1)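 IC50 from four-parameter, variable-slope fits of % growth inhibition, derived from CellTiterGlo 2.0 luminescence relative to control. Compounds, usually 10-10,000 nM in half-log steps, stayed 6 days at 37 °C, 5% CO2 with 500 MCF-7 or OVCAR-3 cells/well in 10% FBS RPMI.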
# [2] = target: CDK4/Cyclin D1 (Homo sapiens (Human), UniProt P11802); experiment: CDK4/Cyclin D1 Mobility Shift Assay (MSA); assay type: biochemical; conditions: 0.2 mM ATP, read-out: CDK4/ CyclinD1 MSA IC50
# CDK4/Cyclin D1, sequence (P11802 whole entry): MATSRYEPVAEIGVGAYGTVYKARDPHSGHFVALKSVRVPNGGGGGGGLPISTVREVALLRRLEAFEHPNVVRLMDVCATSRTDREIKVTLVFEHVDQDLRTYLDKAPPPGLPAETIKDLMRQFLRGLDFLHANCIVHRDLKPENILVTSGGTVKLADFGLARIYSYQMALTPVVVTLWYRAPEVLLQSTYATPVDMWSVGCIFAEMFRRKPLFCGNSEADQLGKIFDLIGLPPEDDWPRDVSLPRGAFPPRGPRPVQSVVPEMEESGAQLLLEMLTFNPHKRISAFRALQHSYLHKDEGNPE
# CDK4/Cyclin D1, sequence (P24385 whole entry partner): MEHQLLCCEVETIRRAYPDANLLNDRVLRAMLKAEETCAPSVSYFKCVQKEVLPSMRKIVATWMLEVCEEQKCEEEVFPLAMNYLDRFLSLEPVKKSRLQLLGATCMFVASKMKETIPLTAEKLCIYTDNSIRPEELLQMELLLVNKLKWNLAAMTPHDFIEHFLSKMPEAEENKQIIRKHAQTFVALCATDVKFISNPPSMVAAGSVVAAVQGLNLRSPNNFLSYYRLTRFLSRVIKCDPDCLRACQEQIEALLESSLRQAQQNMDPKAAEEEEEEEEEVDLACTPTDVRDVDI
# Excerpt: CDK4/Cyclin D1 Mobility Shift Assay (MSA)
# The purpose CDK4/Cyclin D1 assay is to evaluate the inhibition (% inhibition and IC50 values) in the presence of small molecule inhibitors by using a fluorescence based microfluidic mobility shift assay. CDK4/Cyclin D1 catalyzes the production of ADP from ATP that accompanies the phosphoryl transfer to the substrate peptide 5-FAM-Dyrktide (5-FAM-[…]) (Perkin Elmer Peptide 34). The mobility shift assay (MSA) electrophoretically separates the fluorescently labelled peptides (substrate and phosphorylated product) following the kinase reaction. Both substrate and product are measured, and the ratio of these values is used to generate % conversion of substrate to product by the LabChip EZ Reader. Typical reaction solutions contained 2% DMSO (+/− inhibitor), 10 mM MgCl2, 1 mM EGTA, 0.05% BSA, 2 mM DTT, 0.2 mM ATP, 0.01% Brig-35, 1.5 uM 5-FAM-Dyrktide, 2.5 nM CDK4/Cyclin D1 in 50 mM HEPES buffer at pH 7.5. The reaction was initiated with the addition of substrate solution, following a 30-minute pre-incubation of enzyme and inhibitor at 22° C. in the reaction mix. The reaction was stopped after 180 minutes by the addition of 75 uL of 500 mM EDTA and measured on a Perkin Elmer EZ reader instrument. IC50 determinations were made from a plot of the fractional velocity as a function of inhibitor concentration fit to the 4 parameters IC50 equation.
# [3] = target: CDK2/Cyclin E1 (Homo sapiens (Human), UniProt P24941); experiment: CDK2/Cyclin E1 Full length ADP-Glo Kinase Assay; assay type: biochemical; conditions: 20 uM ATP, read-out: CDK2/ CyclinE1 IC50
# Summary of the method: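 ADP-Glo luminescence (ATP depletion, then ADP-to-light conversion) quantified kinase turnover after a 90 min room-temperature reaction started by ATP/substrate, following 30 min enzyme–inhibitor preincubation. Enzyme: full-length CDK2/cyclin E1; IC50 fitted with a four-parameter equation on fractional velocity.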
# [4] = target: CDK1/Cyclin B1 (Homo sapiens (Human), UniProt P06493); experiment: CDK1/Cyclin B1 ADP-Glo Kinase Assay; assay type: biochemical; conditions: ADP-Glo, 80 uM ATP; read-out: CDK1 Cyclin B1 IC50
# CDK1/Cyclin B1, sequence (P06493 whole entry): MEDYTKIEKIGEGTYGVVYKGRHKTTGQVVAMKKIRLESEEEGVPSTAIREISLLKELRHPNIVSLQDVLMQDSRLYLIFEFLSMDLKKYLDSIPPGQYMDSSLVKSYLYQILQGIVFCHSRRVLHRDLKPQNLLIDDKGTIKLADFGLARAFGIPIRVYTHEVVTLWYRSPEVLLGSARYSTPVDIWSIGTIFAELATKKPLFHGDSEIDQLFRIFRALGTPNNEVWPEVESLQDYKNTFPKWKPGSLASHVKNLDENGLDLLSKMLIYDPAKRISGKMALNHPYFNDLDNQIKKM
# CDK1/Cyclin B1, sequence (P14635 whole entry partner): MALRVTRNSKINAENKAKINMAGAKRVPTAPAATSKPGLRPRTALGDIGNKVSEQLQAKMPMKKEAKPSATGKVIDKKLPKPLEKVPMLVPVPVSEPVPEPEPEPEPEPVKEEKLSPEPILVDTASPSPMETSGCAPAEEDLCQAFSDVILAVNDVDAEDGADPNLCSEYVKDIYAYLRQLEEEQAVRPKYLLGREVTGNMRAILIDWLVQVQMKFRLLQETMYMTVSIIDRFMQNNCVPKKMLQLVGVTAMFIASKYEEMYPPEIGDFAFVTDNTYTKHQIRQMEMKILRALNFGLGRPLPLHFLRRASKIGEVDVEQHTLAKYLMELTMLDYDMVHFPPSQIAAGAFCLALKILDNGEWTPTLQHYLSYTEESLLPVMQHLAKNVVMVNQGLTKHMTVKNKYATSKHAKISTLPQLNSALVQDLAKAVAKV
# Summary of the method: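 ADP-Glo luminescent readout of ADP production, with IC50 fitted by a four-parameter equation to fractional velocity against inhibitor concentration. Reaction started with ATP-containing substrate after a 30-minute enzyme–inhibitor pre-incubation and stopped after 90 minutes, both at room temperature.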
# [5] = system: OVCAR-3 cells; experiment: Cell Growth Inhibition, OVCAR-3 (CellTiterGlo, 6 days); assay type: cell-based; conditions: Homo sapiens, 144 h, OVCAR-3, 6-day treatment
# Summary of the method: as §1
# [6] = target: CDK6/Cyclin D3 (Homo sapiens (Human), UniProt Q00534); experiment: CDK6/Cyclin D3 ADP-Glo Kinase Assay; assay type: biochemical; conditions: 100 uM ATP, read-out: CDK6/ CyclinD3 IC50
# CDK6/Cyclin D3, sequence (Q00534 whole entry): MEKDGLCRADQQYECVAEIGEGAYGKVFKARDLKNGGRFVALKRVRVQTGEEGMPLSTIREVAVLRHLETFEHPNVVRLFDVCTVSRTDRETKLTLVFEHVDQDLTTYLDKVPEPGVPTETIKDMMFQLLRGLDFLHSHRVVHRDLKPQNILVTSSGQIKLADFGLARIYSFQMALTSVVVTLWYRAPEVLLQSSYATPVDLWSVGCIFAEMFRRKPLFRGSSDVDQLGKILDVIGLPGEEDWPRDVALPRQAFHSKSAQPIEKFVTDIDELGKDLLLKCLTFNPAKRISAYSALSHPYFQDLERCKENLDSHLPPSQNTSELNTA
# CDK6/Cyclin D3, sequence (P30281 whole entry partner): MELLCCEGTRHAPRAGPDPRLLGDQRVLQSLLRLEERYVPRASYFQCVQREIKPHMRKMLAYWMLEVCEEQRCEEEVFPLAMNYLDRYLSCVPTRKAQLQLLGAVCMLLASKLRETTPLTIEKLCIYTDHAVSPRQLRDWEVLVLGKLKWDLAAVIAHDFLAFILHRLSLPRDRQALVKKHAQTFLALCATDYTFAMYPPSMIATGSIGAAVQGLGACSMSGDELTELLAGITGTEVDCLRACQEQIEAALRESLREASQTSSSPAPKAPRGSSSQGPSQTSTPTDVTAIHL
# Summary of the method: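 ADP-Glo luminescence measured ADP produced by CDK6/Cyclin D3 in a 90-min room-temperature reaction started with ATP-containing substrate, after 30-min enzyme–inhibitor pre-incubation. Fractional velocity was plotted against inhibitor concentration and fitted to a four-parameter IC50 model.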
SMILES,IC50 [1] [nM],IC50 [2] [nM],IC50 [3] [nM],IC50 [4] [nM],IC50 [5] [nM],IC50 [6] [nM]
"CS(=O)(=O)N1CCC(Nc2ncc3ccnc(N4CCC5(CCOCC5)C4)c3n2)CC1 [Compound 7, N-(1-(methylsulfonyl)piperidin-4-yl)-8-(8-oxa-2-azaspiro[4.5]decan-2-yl)pyrido[3,4-d]pyrimidin-2-amine]",500 to 2000,< 200,< 200,200 to 500,500 to 2000,< 200
"CN1CCn2nc(Nc3ncc4ccnc(N5CCC6(C5)CC6(F)F)c4n3)cc2C1 (stereo not drawn) [Compound 10, 8-(1,1-difluoro-5-azaspiro[2.4]heptan-5-yl)-N-(5-methyl-4,5,6,7-tetrahydropyrazolo[1,5-a]pyrazin-2-yl)pyrido[3,4-d]pyrimidin-2-amine]",500 to 2000,< 200,< 200,> 2000,500 to 2000,< 200
"CS(=O)(=O)N1CC(Nc2ncc3ccnc(N4CCC5(C4)CC5(F)F)c3n2)C1 (stereo not drawn) [Compound 14, 8-(1,1-difluoro-5-azaspiro[2.4]heptan-5-yl)-N-(1-(methylsulfonyl)azetidin-3-yl)pyrido[3,4-d]pyrimidin-2-amine]",> 2000,< 200,< 200,200 to 500,> 2000,< 200
"CN1C[C@@H]2[C@H](C1)[C@H]2Nc1ncc2ccnc(N3CCC4(CCN(S(C)(=O)=O)C4)C3)c2n1 (stereo partly drawn) [Compound 15, N-((1R,5S,6s)-3-methyl-3-azabicyclo[3.1.0]hexan-6-yl)-8-(7-(methylsulfonyl)-2,7-diazaspiro[4.4]nonan-2-yl)pyrido[3,4-d]pyrimidin-2-amine]",> 2000,500 to 2000,500 to 2000,> 2000,> 2000,> 2000
"CN1C[C@@H]2[C@H](C1)[C@H]2Nc1ncc2ccnc(N3CCC4(C3)CC4(F)F)c2n1 (stereo partly drawn) [Compound 17, 8-(1,1-difluoro-5-azaspiro[2.4]heptan-5-yl)-N-((1R,5S,6s)-3-methyl-3-azabicyclo[3.1.0]hexan-6-yl)pyrido[3,4-d]pyrimidin-2-amine]",500 to 2000,< 200,200 to 500,> 2000,500 to 2000,200 to 500
"CCN1CC2(C1)CN(c1ccc(Nc3ncc4ccnc(N5CCC6(CCOCC6)C5)c4n3)nc1)C2 [Compound 18, N-(5-(6-ethyl-2,6-diazaspiro[3.3]heptan-2-yl)pyridin-2-yl)-8-(8-oxa-2-azaspiro[4.5]decan-2-yl)pyrido[3,4-d]pyrimidin-2-amine]",200 to 500,< 200,500 to 2000,> 2000,> 2000,< 200
"CCN1CC2(C1)CN(c1ccc(Nc3ncc4ccnc(N5CCC6(C5)CC(F)(F)C6)c4n3)nc1)C2 [Example 6, 8-(2,2-difluoro-6-azaspiro[3.4]octan-6-yl)-N-(5-(6-ethyl-2,6-diazaspiro[3.3]heptan-2-yl)pyridin-2-yl)pyrido[3,4-d]pyrimidin-2-amine]",500 to 2000,< 200,500 to 2000,> 2000,> 2000,< 200

# Further lines, results first:
IC50 [1] [nM],IC50 [2] [nM],IC50 [3] [nM],IC50 [4] [nM],IC50 [5] [nM],IC50 [6] [nM],SMILES
> 2000,500 to 2000,< 200,> 2000,> 2000,> 2000,"CS(=O)(=O)N1CCC(Nc2ncc3ccnc(N4CC5(CCCC5)c5c(F)cccc54)c3n2)CC1 [Compound 19, 8-(4′-fluorospiro[cyclopentane-1,3′-indolin]-1′-yl)-N-(1-(methylsulfonyl)piperidin-4-yl)pyrido[3,4-d]pyrimidin-2-amine]"
500 to 2000,< 200,< 200,500 to 2000,200 to 500,< 200,"CN1CCC(n2cc(Nc3ncc4ccnc(N5CCC6(C5)CC6(F)F)c4n3)cn2)CC1 (stereo not drawn) [Compound 20, 8-(1,1-difluoro-5-azaspiro[2.4]heptan-5-yl)-N-(1-(1-methylpiperidin-4-yl)-1H-pyrazol-4-yl)pyrido[3,4-d]pyrimidin-2-amine]"
200 to 500,< 200,< 200,< 200,200 to 500,< 200,"CN1Cc2ccc(Nc3ncc4ccnc(N5CCC6(C5)CC6(F)F)c4n3)cc2C1 (stereo not drawn) [Compound 22, 8-(1,1-difluoro-5-azaspiro[2.4]heptan-5-yl)-N-(2-methylisoindolin-5-yl)pyrido[3,4-d]pyrimidin-2-amine]"
500 to 2000,< 200,< 200,< 200,500 to 2000,< 200,"CS(=O)(=O)N1CCC(Nc2ncc3ccnc(N4CCC5(C4)CC(F)(F)C5)c3n2)CC1 [Example 2, 8-(2,2-difluoro-6-azaspiro[3.4]octan-6-yl)-N-(1-(methylsulfonyl)piperidin-4-yl)pyrido[3,4-d]pyrimidin-2-amine]"
